This is an account of results in US20070225171A1 (priority 2001, published 2007).

Where two headings read alike, the source gives them in different places.

In assay [1] the test system is Plants expressing the dioxygenase encoded by the tfdA gene. The note with it: reported in Llewellyn and Last 1996 and U.S. Pat. Nos. 6,100,446 and 6,153,401; cited from earlier work.
For assay [2], the system named is Transgenic cotton plants (transformed with tfdA gene). The assay can be described thus: Seed cotton yield after spraying 2,4-D amine on transgenic cotton. In kind it is in vivo. The note with it: for SEED COTTON YIELD: herbicide rate 1 lb/acre, average of 4 replications. The procedure:
Transgenic cotton plants (transformed as described in Bayley et al., Theor. Appl. Genet., 83:645-649 (1992)) were grown from transgenic seed obtained from USDA, Lubbock, Tex. The cotton plants were sprayed with 2,4-D amine at 1 lb of active ingredient per acre.

The test system of assay [3] is Plants expressing the dioxygenase encoded by the tfdA gene. The assay is described as follows: Herbicide tolerance of plants expressing the tfdA dioxygenase. In kind it is in vivo. Conditions: at lower levels of herbicide than for 2,4-D; data not shown. From the text:
See, e.g., Llewellyn and Last, in Herbicide-Resistant Crops Chapter 10, pages 159-174 (Duke, ed., CRC Lewis Publishers 1996). Preferably, additional bacterial codons of the tfdA coding sequence are replaced by plant-preferred codons to obtain better expression of the encoded dioxygenase. […] See, e.g., Llewellyn and Last, in Herbicide-Resistant Crops Chapter 10, pages 159-174 (Duke, ed., CRC Lewis Publishers 1996) and U.S. Pat. Nos. 6,100,446 and 6,153,401.

Turning to `O=C(O)COc1cc(Cl)c(Cl)cc1Cl` [2,4,5-T, 2,4,5-trichlorophenoxyacetic acid], the “tolerance of plants to the herbicide” value in assay [1] was “not to be tolerant”.
For the compound `CNC.O=C(O)COc1ccc(Cl)cc1Cl` [2,4-D amine], the “effect on yield of cotton” value in assay [2] (1 lb of active ingredient per acre) is “significantly increased the yield of cotton”. The “PERCENT INCREASE, AVERAGE” value in assay [2] (average of the seven cotton lines, 1 lb/acre vs rate 0) came out at 13.0. For the same compound, the “PERCENT INCREASE” value was 8.0 in assay [2] (cotton line X-2600, 1 lb/acre vs rate 0); 7.4 in assay [2] (cotton line X-2603, 1 lb/acre vs rate 0); 19.5 in assay [2] (cotton line X-2606, 1 lb/acre vs rate 0); −1.1 in assay [2] (cotton line X-2609, 1 lb/acre vs rate 0); 33.6 in assay [2] (cotton line X-2614, 1 lb/acre vs rate 0); 15.3 in assay [2] (cotton line X-2615, 1 lb/acre vs rate 0). Moreover, the “PERCENT INCREASE” value in assay [2] (cotton line X-2619, 1 lb/acre vs rate 0) is 8.7. Also, the “SEED COTTON YIELD” value in assay [2] (cotton line X-2600) is 2145 Pounds/acre; in assay [2] (cotton line X-2603), 2790 Pounds/acre; in assay [2] (cotton line X-2606), 3067 Pounds/acre; in assay [2] (cotton line X-2609), 2301 Pounds/acre; in assay [2] (cotton line X-2614), 2660 Pounds/acre; in assay [2] (cotton line X-2615), 2380 Pounds/acre. Besides, in assay [2] (cotton line X-2619), the “SEED COTTON YIELD” value was found to be 2235 Pounds/acre.
As to `O=C(O)CCCOc1ccc(Cl)cc1Cl` [2,4-DB, 2,4-dichlorophenoxybutyric acid], in assay [3], the “tolerance of plants to the herbicide” value was “tolerant”.
For `O=C(O)COc1ccc(Cl)cc1` [4-CPA, 4-chlorophenoxyacetic acid], the “tolerance of plants to the herbicide” value in assay [1] is “tolerant”.
As for `Cc1cc(Cl)ccc1OCC(=O)O` [MCPA, 2-methyl-4-chlorophenoxyacetic acid], the “tolerance of plants to the herbicide” value in assay [3] is listed as “tolerant”.
